target: DNA gyrase (Escherichia coli) (UniProt P0AES6+P0AES4); test: In vitro activity against Escherichia coli DNA gyrase supercoiling; format: protein-complex assay

Row | Compound | MNEC [µM]
1 | O=C1Nc2ccccc2/C1=N/c1ccc(C(F)(F)F)cc1 | > 100
2 | O=C(/N=N/c1c(O)[nH]c2ccc(Br)cc12)c1ccncc1 | > 100
3 | O=C1Nc2ccccc2/C1=C/c1ccccc1N1CCOCC1 | > 100
4 | CCc1nc(C)c(/C=C2\C(=O)Nc3ccccc32)[nH]1 | 25
5 | Oc1[nH]c2ccccc2c1/N=N/c1n[nH]c2c3ccccc3nc-2n1 | > 100
6 | O=C1Nc2ccccc2/C1=C/c1cccnc1 | > 100
7 | Cc1[nH]c2ccccc2c1/C=C1\C(=O)Nc2ccccc21 | > 100
8 | O=C1Nc2ccccc2/C1=C/c1cnc[nH]1 | 100
9 | O=C1Nc2ccccc2/C1=C/c1c[nH]c(-c2ccccc2)n1 | > 100
10 | Cc1ccc2c(c1)/C(=N/N=C/c1c(O)ccc3ccccc13)C(=O)N2 | > 100
11 | O=C1N=C(N2CCOCC2)S/C1=C1\C(=O)Nc2ccccc21 | > 100
12 | O=C1Nc2ccccc2/C1=C/c1c[nH]nc1-c1cccs1 | > 100
13 | O=C1Nc2ccccc2/C1=C/c1ccc([N+](=O)[O-])cc1 | > 100
14 | O=C1Nc2ccccc2/C1=C/c1c[nH]c2cc([N+](=O)[O-])ccc12 | > 100
15 | CCc1nc(/C=C2\C(=O)Nc3ccccc32)c[nH]1 | < 100
16 | CCCCc1nc(/C=C2\C(=O)Nc3ccccc32)c[nH]1 | 50
